Data on 15 compounds can be found in ChEMBL document CHEMBL1255520, “Azole derivatives as histamine H3 receptor antagonists, part I: thiazol-2-yl ethers” (Bioorg Med Chem Lett, 2010).

A value given as a limit tells only on which side of the number the result lay.

For this assay, the target named is Histamine H3 receptor (Homo sapiens, UniProt Q9Y5N1). Put plainly: Displacement of [125I]iodoproxyfan human histamine H3 receptor. Background: Loss of bound radioactivity is the signal in a displacement assay; it reports binding, not function.
Chain of Histamine H3 receptor (Q9Y5N1 whole entry): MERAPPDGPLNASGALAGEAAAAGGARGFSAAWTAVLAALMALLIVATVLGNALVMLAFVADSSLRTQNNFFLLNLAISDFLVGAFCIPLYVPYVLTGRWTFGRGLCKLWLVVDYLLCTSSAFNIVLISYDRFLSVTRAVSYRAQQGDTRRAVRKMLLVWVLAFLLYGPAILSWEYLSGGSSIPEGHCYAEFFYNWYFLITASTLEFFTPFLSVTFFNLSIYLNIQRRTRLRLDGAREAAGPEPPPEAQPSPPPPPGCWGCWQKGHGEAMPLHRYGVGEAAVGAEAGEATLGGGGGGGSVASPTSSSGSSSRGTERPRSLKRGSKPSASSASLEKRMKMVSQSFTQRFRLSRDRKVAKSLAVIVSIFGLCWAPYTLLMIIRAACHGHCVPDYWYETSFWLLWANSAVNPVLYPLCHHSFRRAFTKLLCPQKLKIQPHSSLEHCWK
As usually defined, the Ki is a dissociation constant, usually derived from enzyme kinetics or from competition with a known ligand. Turning to `CN(C)CCCOc1nc2c(s1)CCN(C)C2`, the Ki was found to be 0.257 µM.

For `CN(C)CCCOc1nc2c(s1)CCCC2`, the Ki was over 1 µM.

As to `CN(C)CCCOc1nc2c(s1)CCOC2`, the Ki was over 1 µM.

Consider `CN(C)CCCOc1nc2c(s1)CCCC2=O`, for which the affinity, expressed as Ki, was 0.153 µM. This counts as sub-micromolar.

For the compound `CN1CCc2sc(OCCCN3CCCCC3)nc2C1`, the Ki came out at 0.024 µM.

Compound `C1CCN(CCCOc2nc3c(s2)CCCC3)CC1` yielded a Ki of 0.357 µM.

`C1CCN(CCCOc2nc3c(s2)CCOC3)CC1`: the affinity corresponds to a Ki of 0.344 µM. This Ki and that of the compound before are within 1.5-fold of each other.

The compound `CC(=O)c1nc(OCCCN2CCCCC2)sc1C` came in with an inhibitory constant (Ki) of 0.155 µM.

Consider `O=C1CCCc2sc(OCCCN3CCCCC3)nc21`, for which the Ki was over 1 µM.

As for `CCN1CCc2sc(OCCCN3CCCCC3)nc2C1`, the Ki was determined as 0.014 µM.

With `c1ccc(CN2CCc3sc(OCCCN4CCCCC4)nc3C2)cc1`, the Ki turned out to be 0.261 µM.

The compound `C1CCN(CCCOc2nc3c(s2)CCN(CCCN2CCCCC2)C3)CC1` came in with a Ki of 0.02 µM.

`Brc1nc(OCCCN2CCCCC2)sc1-c1ccccc1` displayed a Ki of 0.093 µM. Against the preceding compound, the Ki is about 4.6-fold higher.

Regarding `Cc1nc(OCCCN2CCCCC2)sc1-c1ccccc1`, the Ki was found to be 0.041 µM.

As to `c1ccc(-c2nc(OCCCN3CCCCC3)sc2-c2ccccc2)cc1`, the Ki was 0.0112 µM.
